{"source": "patent US5436260A", "about": "“Angiotensin II receptor antagonists” (Warner-Lambert Company, priority 1994, dated 1995)", "note": "pIC50: −log10 of the molar value. Structures can show the parent of a compound that is named as a salt."}
{"molecular_target": "T1, AT1 receptor (Rattus norvegicus, UniProt P25095)", "T1 construct": "rat liver membranes; from tissue; host or cells: rat liver membranes", "T1 sequence (P25095 1-359)": "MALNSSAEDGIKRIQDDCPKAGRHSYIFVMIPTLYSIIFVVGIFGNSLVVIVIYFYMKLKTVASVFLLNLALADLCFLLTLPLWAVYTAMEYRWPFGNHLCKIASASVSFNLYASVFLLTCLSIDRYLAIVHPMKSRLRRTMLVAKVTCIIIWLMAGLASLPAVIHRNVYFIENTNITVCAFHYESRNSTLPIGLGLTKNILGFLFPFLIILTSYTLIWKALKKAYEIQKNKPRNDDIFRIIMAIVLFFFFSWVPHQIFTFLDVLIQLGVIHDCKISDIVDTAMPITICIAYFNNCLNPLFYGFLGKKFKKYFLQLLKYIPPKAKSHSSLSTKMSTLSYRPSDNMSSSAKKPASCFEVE", "experiment": "[^3 H]angiotensin II binding to rat liver membranes (AT1 test)", "conditions": "inhibition of [^3 H]angiotensin II binding", "protocol": "The compounds of Formula I or Ia are antagonists of angiotensin II. Dudley, D. T., et al, Molecular Pharmacology 1990;38:370-377 reported the existence of 2 subclasses of angiotensin II binding sites in rabbit adrenal gland and uterus and in the rat liver which differ in their tissue distribution and affinity for various peptide and nonpeptide ligands. Thus, the compounds of Formula I or Ia were tested for their ability to inhibit [^3 H]angiotensin II binding to rat liver membranes (AT1 test) according to the methods described by Dudley, D. T., et al, Molecular Pharmacology 1990;38:370-7. […] It is well established that compounds which antagonize the effect of angiotensin II at the AT1 receptor have value for treatment of hypertension and heart failure."}
{"smiles": "CCCCc1ncc(/C=C(/C(=O)O)N(CCCC)C(=O)NCOC)n1Cc1ccc(C(=O)OC)cc1", "note": "[Example 98]", "pIC50": 6.42}
{"smiles": "CCCCc1nc(Br)c(/C=C2\\C(=O)NC(=O)N2CCCC)n1Cc1ccc(-c2ccccc2C(=O)OC)cc1", "note": "[Example 97b, Methyl E-4'-[[4-bromo-2-butyl-5-[(3-butyl-2,5-dioxo-4-imidazolidinylidene)methyl]-1H-imidazol-1-yl]methyl][1,1'-biphenyl]-2-carboxylate]", "pIC50": 6.30}
{"smiles": "CCCCc1ncc(/C=C2\\C(=O)NC(=O)N2C)n1Cc1ccc(C(=O)O)cc1", "note": "[Example 3a, (E)-4-[[2-Butyl-5-[(2,5-dioxo-3-methyl-4-imidazolidinylidene)methyl]-1H-imidazol-1-yl]methyl]benzoic acid]", "pIC50": 6.76}
{"smiles": "CCCCc1ncc(/C=C2/C(=O)NC(=O)N2CCC(C)C)n1Cc1ccc(C(=O)O)cc1", "note": "[Example 2b]", "pIC50": 8.06}
{"smiles": "CCCCc1ncc(/C=C2/C(=O)N(CCCC)C(=O)N2Cc2cccs2)n1Cc1ccc(C(=O)O)cc1", "note": "[Example 75, Z-4-[[2-butyl-5-[[1-butyl-2,5-dioxo-3-(2-thienylmethyl)-4-imidazolidinylidene]methyl]-1H-imidazol-1-yl]methyl]benzoic acid]", "pIC50": 9.19}
{"smiles": "CCCCc1ncc(/C=C2\\NC(=O)N(CCCC(F)(F)F)C2=O)n1Cc1ccc(C(=O)OC)cc1", "note": "[Example 107, Methyl Z-4-[[2-butyl-5-[[2,5-dioxo-4,4,4,-(trifluorobutyl)-4-imidazolidinylidene]methyl]-1H-imidazol-1-yl]methyl]benzoate]", "pIC50": 5.84}
{"smiles": "CCCCc1ncc(CC2C(=O)NC(=O)N2CCCC)n1Cc1ccc(C(=O)O)cc1", "note": "(stereo not shown) [Example 65, 4-[[2-Butyl-5-[(3-butyl-2,5-dioxo-4-imidazolidinyl)methyl]-1H-imidazol-1-yl]methyl]benzoic acid]", "pIC50": 6.70}
{"smiles": "CCCCc1ncc(/C=C2/C(=O)N(CCCC)C(=O)N2CCCC)n1Cc1ccc(C(=O)OC)cc1", "note": "[Example 22, Methyl Z-4-[[-2-butyl-5-[(1,3-dibutyl-2,5-dioxo-4-imidazolidinylidene)methyl]-1H -imidazol-1-yl]methyl]benzoate monohydrochloride]", "pIC50": 8.78}
{"smiles": "CCCCc1ncc(/C=C2/C(=O)N(CCCC)C(=O)N2Cc2csc(C)n2)n1Cc1ccc(C(=O)OC)cc1Cl", "note": "[Example 110, Methyl Z-4-[[2-butyl-5-[[1-butyl-3-[(2-methyl-4-thiazolyl)methyl]-2,5-dioxo-4-imidazolidinylidene[methyl]-1H-imidazol-1-yl]methyl]-3chloro benzoatemonohydrochloride]", "pIC50": 8.61}
{"smiles": "CCCCc1ncc(/C=C2\\C(=O)NC(=O)N2Cc2ccc(Cl)cc2)n1Cc1ccc(C(=O)O)cc1", "note": "[Example 20a, E-4-[[2-butyl-5-[[3-[(4-chlorophenyl)methyl]-2,5-dioxo-4-imidazolidinylidene]methyl]-1H-imidazol-1-yl]methyl]benzoic acid]", "pIC50": 8.47}
{"smiles": "CCCCc1ncc(/C=C2/C(=O)N(COC)C(=O)N2Cc2ccccc2)n1Cc1ccc(C(=O)OC)cc1", "note": "[Example 55, Methyl Z-4-[[2-butyl-5-[[1-(methoxymethyl)-2,5-dioxo-3-(phenylmethyl)-4-imidazolidinylidene]methyl]-1H-imidazol-1-yl]methyl]benzoate monohydrochloride]", "pIC50": 7.89}
{"smiles": "CCCCc1ncc(/C=C2\\C(=O)NC(=O)N2CCCC)n1Cc1ccc(NS(=O)(=O)C(F)(F)F)cc1", "note": "[Example 71b, E-N-[4-[[2-butyl-5-[(3-butyl-2,5-dioxo-4-imidazolidinylidene)methyl]-1H-imidazol-1-yl]methyl]phenyl]-1,1,1-trifluoromethanesulfonamide]", "pIC50": 8.38}
{"smiles": "CCCCc1ncc(/C=C2/C(=O)N(CCCC)C(=O)N2Cc2csc(C)n2)n1Cc1ccc(C2(C(=O)O)CCCC2)cc1", "note": "[Example 85]", "pIC50": 8.73}
{"smiles": "CCCCc1ncc(/C=C2/C(=O)N(Cc3cccs3)C(=O)N2Cc2cccs2)n1Cc1ccc(C(=O)O)cc1", "note": "[Example 105, Z-4-[[2-Butyl-5-[[2,5-dioxo-1,3-bis(2-thienylmethyl)-4-imidazolidinylidene]methyl]-1H-imidazol-1-yl]methyl]benzoic acid]", "pIC50": 8.83}
{"smiles": "CCCCc1ncc(/C=C2/C(=O)N(CCCC)C(=O)N2Cc2cc(Br)cs2)n1Cc1ccc(C(=O)OC)cc1", "note": "[Example 78, Methyl Z-4-[[5-[[3-[(4-bromo-2-thienyl)methyl]-1-butyl-2,5-dioxo-4-imidazolidinylidene]methyl]-2-butyl-1H-imidazol-1-yl]methyl]benzoate monohydrochloride]", "pIC50": 7.66}
{"smiles": "CCCCc1ncc(/C=C2/C(=O)N(CCCC)C(=O)N2CC2CCCCC2)n1Cc1ccc(C(=O)OC)cc1", "note": "[Example 43, Methyl Z-4-[[2-butyl-5-[[1-butyl-3-(cyclohexylmethyl)-2,5-dioxo-4-imidazolidinylidene]methyl]-1H-imidazol-1-yl]methyl]benzoate mono hydrochloride]", "pIC50": 8.48}
{"smiles": "CCCCc1ncc(/C=C2/C(=O)NC(=O)N2Cc2ccc(Cl)cc2)n1Cc1ccc(C(=O)O)cc1", "note": "[Example 20b, Z-4-[[2-butyl-5-[[3-[(4-chlorophenyl)methyl]-2,5-dioxo-4-imidazolidinylidene]methyl]-1H-imidazol-1-yl]methyl]benzoic acid]", "pIC50": 8.61}
{"smiles": "CCCCc1ncc(/C=C2\\C(=O)N(Cc3csc(C)n3)C(=O)N2CCCC)n1Cc1ccc(C(=O)OC)cc1", "note": "[Example 86, Methyl E-4-[[2-butyl-5-[[3-butyl-1-[(2-methyl-4-thiazolyl)methyl]-2,5-dioxo-4-imidazolidinylidene]methyl]-1H-imidazol-1-yl]methyl]benzoate dihydrochloride]", "pIC50": 8.34}
{"smiles": "CCCCc1ncc(/C=C2\\C(=O)N(CCCC)C(=O)N2Cc2cccs2)n1Cc1ccc(C(=O)OC)cc1", "note": "[Example 24, Methyl E-4-[[2-butyl-5-[[1-butyl-2,5-dioxo-3-(2-thienylmethyl)-4-imidazolidinylidene]methyl]-1H-imidazol-1-yl]methyl]benzoate monohydrochloride]", "pIC50": 7.99}
{"smiles": "CCCCc1ncc(/C=C2/C(=O)N(CCCC)C(=O)N2Cc2ccc(C)s2)n1Cc1ccc(C(=O)O)cc1", "note": "[Example 74, Z-4-[[2-butyl-5-[[1-butyl-3-[(5-methyl-2-thienyl)methyl]-2,5-dioxo-4imidazolidinylidene]methyl]-1H-imidazol-1-yl]methyl]benzoic acid]", "pIC50": 9.22}
{"smiles": "CCCCc1ncc(/C=C2/C(=O)NC(=O)N2Cc2cccs2)n1Cc1ccc(C(=O)OC)cc1", "note": "[Example 63]", "pIC50": 8.29}
{"smiles": "CCCCc1ncc(/C=C2/C(=O)N(CCCC)C(=O)N2Cc2csc(C)n2)n1Cc1ccc(C2(C(=O)OC)CCCC2)cc1", "note": "[Example 84, Methyl Z-1-[4-[[2-butyl-5-[[1-butyl-[3(2-methyl-4-thiazoly)methyl]-2,5-dioxo-4-imidazolidinylidene]methyl]-1H-imidazol-1-yl]methyl]phenyl]cyclopentane-carboxylate monohydrochloride]", "pIC50": 6.91}
{"smiles": "CCCCc1ncc(/C=C2/C(=O)N(CCCC)C(=O)N2Cc2ccc(Br)s2)n1Cc1ccc(C(=O)OC)cc1", "note": "[Example 77, Methyl Z-4-[[5-[[3-[(5-bromo-2-thienyl)methyl]-1-butyl-2,5-dioxo-4-imidazolidinylidene]methyl]-2-butyl-1H-imidazol-1-yl]methyl]benzoate monohydrochloride]", "pIC50": 7.75}
{"smiles": "CCCCc1ncc(/C=C2/C(=O)N(CCCC)C(=O)N2Cc2ccccn2)n1Cc1ccc(C(=O)OC)cc1", "note": "[Example 58, Methyl Z-4-[[2-butyl-5-[[1-butyl-2,5-dioxo-3-(2-pyridinylmethyl)-4-imidazolidinylidene]methyl]-1H-imidazol-1-yl]methyl]benzoate dihydrochloride]", "pIC50": 8.24}
{"smiles": "CCCCN1C(=O)N(C)C(=O)/C1=C\\c1cnc(CCC)n1Cc1ccc(C(=O)OC)cc1", "note": "[Example 18]", "pIC50": 7.68}
{"smiles": "CCCCc1ncc(/C=C2/C(=O)NC(=O)N2CCCC)n1Cc1ccc(C(=O)OC)cc1Cl", "note": "[Example 87a, Methyl Z-4-[[2-butyl-5-[(3-butyl-2,5-dioxo-4-imidazolidinylidene)methyl]-1H-imidazol-1-yl]methyl]-3-chlorobenzoate]", "pIC50": 8.00}
{"smiles": "CCCCc1ncc(/C=C2/C(=O)NC(=O)N2CCCC)n1Cc1ccc(-c2nn[nH]n2)cc1", "note": "[Example 76a, Z-1-Butyl-5-[[2-butyl-3-[[4-(1H-tetrazol-5-yl)phenyl]methyl]-3H-imidazol-4-yl]methylene]-2,4-imidazolidinedione]", "pIC50": 8.47}
{"smiles": "CCCCc1ncc(/C=C2/C(=O)N(CCCC(F)(F)F)C(=O)N2CCCC(F)(F)F)n1Cc1ccc(C(=O)OC)cc1", "note": "[Example 113, dihydrochloride]", "pIC50": 7.74}
{"smiles": "CCCCc1ncc(/C=C2/C(=O)N(CCCC)C(=O)N2CCCC)n1Cc1ccc(C(=O)OC)cc1", "note": "[Example 33, Methyl Z-4-[[2-butyl-5-[(1,3-dibutyl-2,5-dioxo-4-imidazolidinylidene)methyl]-1 H-imidazol-1-yl]methyl]benzoate monohydrochloride]", "pIC50": 8.07}
{"smiles": "CCCCc1ncc(/C=C2\\C(=O)NC(=O)N2CCCC)n1Cc1ccc(-c2ccccc2-c2nn[nH]n2)cc1", "note": "[Example 92]", "pIC50": 8.57}
{"smiles": "CCCCc1ncc(/C=C2/NC(=O)N(CCCC)C2=O)n1Cc1ccc(C(=O)OC)cc1", "note": "[Example 32b, Methyl E-4-[[2-butyl-5-[(1-butyl-2,5-dioxo-4-imidazolidinylidene)methyl]-1H-imidazol-1-yl]methyl]benzoate]", "pIC50": 5.93}
